{"source": "patent US11498946B2", "about": "“Pharmaceutical composition for combination therapy for preventing or treating cancer containing tumor-specific drug conjugate and anti-PD-L1 antibody as active ingredients” (KOREA INSTITUTE OF SCIENCE AND TECHNOLOGY, priority 2019, dated 2022)", "key": {"[1]": {"test_system": "HT-29 colorectal cancer cells", "experiment": "Tumor-treating effect in vivo, tumor volume depending on time, HT-29 tumor animal model", "set-up": "species or system athymic nude mice", "conditions": "HT-29 tumor in nude mice; FDOX or DOX 4 mg/kg intravenously, anti-PD-L1 antibody 10 mg/kg intraperitoneally, 3-day intervals", "experimental": "The following comparison groups were prepared to compare the efficiency of the test group.\nControl group (control): identical to the test group except that no drug was administered.\nFirst comparison group (FDOX): identical to the test group except that only the formulated drug conjugate (FDOX) was administered without the anti-PD-L1 antibody.\nSecond comparison group (DOX+PD-L1 Ab): identical to the test group except that 4 mg/kg of doxorubicin was administered intravenously instead of the formulated drug conjugate (FDOX)."}, "[2]": {"set-up": "species or system athymic nude mice", "conditions": "mouse, in vivo", "experimental": "For the animal models of the second and third comparison groups, the organs were extracted on day 20 after the drug administration because the animals died within 20 days. After preparing tissues of each extracted organ into 10-μm thick sections, cell death in the organ was evaluated by staining cancerous tissues with annexin V. In addition, the tissues extracted from the major organs (heart, kidney, spleen, lung and liver) were stained with hematoxylin and eosin for investigation of the structural change in the tissues and toxicity."}, "[3]": {"experiment": "In-vivo toxicity by body weight depending on time, and death, in tumor-bearing mice", "conditions": "HT-29 tumor-bearing nude mice", "protocol": "Specifically, athymic nude mice (6-week-old, 20-25 g, male) purchased from Nara Bio (Gyenggi-do, Korea) were used. In order to express colorectal cancers in the male nude mice, a tumor animal model was prepared by subcutaneously inoculating 1×10^7 HT-29 colorectal cancer cells into left thighs. […] The formulated drug conjugate (FDOX) was administered intravenously at a concentration of 4 mg/kg, and the anti-PD-L1 antibody was administered intraperitoneally at a concentration of 10 mg/kg. A test group (FDOX+PD-L1 Ab) was prepared by administering the two therapeutic agents at 3-day intervals.\nFor the test group, the control group and the first, second and third comparison groups, tumor size was measured at 2-day intervals and calculated as maximum diameter×minimum diameter. In addition, the body weight of each group was measured at 2-day intervals to investigate in-vivo toxicity."}}, "data": [{"compound": "COc1cccc2c1C(=O)c1c(O)c3c(c(O)c1C2=O)C[C@@](O)(C(=O)CO)C[C@@H]3O[C@H]1C[C@H](N)[C@H](O)[C@H](C)O1", "note": "[DOX, doxorubicin]", "values": [{"measurement": "tumor growth (tumor volume depending on time)", "setting": "[1]", "result": "could be delayed but could not be completely inhibited"}, {"measurement": "change in the major organs (H&E)", "setting": "[2]", "result": "long-term toxicity such as hemorrhage, disruption of tissue structure, enucleation"}, {"measurement": "in-vivo / systemic toxicity", "setting": "[3]", "result": "fatal side effect leading to death"}]}]}
